In the experiment the test system is bovine explants. Briefly: Cartilage explant assay (pH-induced cartilage degradation, GAG liberation). It counts as cell-based. The following applies: Bos taurus, 72 h, pH 5.5, 3 days. From the text:
In order to investigate the effect of potential cathepsin D inhibitors on cartilage degradation, a pH-induced model based on bovine explants is used. The pH of the medium in which the explants are cultivated is matched here to the pathophysiological pH of an arthrotic knee. This pH is pH 5.5. In this ex vivo model, potential cathepsin D inhibitors are subsequently investigated for their action with respect to stopping of the cartilage degradation process. If the cartilage is destroyed, glycosaminoglycans (GAGs) are released into the cell culture supernatant. The amount of GAGs liberated can be determined quantitatively with the aid of DMMB (dimethylmethylene blue hydrochloride). If sulfated GAGs are detected using dimethylmethylene blue hydrochloride, the decrease in the absorption at 633 nm is utilised. […] In order to determine the concentration, a calibration line is also recorded using chondroitin sulfate.
The bovine explants are firstly prepared. The induction of the cartilage degradation is carried out in 96-multiwell plates. One explant is cultivated per well. In each case, 200 μl of DMEM (incubation medium pH 5.5) without FBS+30 μg/ml of ascorbic acid are added. Thus negative control, explants (n=4) are incubated at pH 7.4 (without FBS). This control is not included in the calculation of the data, but instead ensures that the pH change has the desired effect on the liberation of GAG. At this point, the substances to be tested are added. No preincubation of the explants is carried out. The explants are cultivated with the corresponding substances for 3 days in the incubator at 37° C. and 7.5% CO2.
In order to investigate the effect of cathepsin D inhibitors on the liberation of GAG (glycosaminoglycan), the substances are employed in the desired concentration and cultivated for 3 days. The compounds to be tested are tested in a first experiment in a concentration of 1 μM and 1% of DMSO. Substances which have an effect of >50% on the liberation of GAG (this corresponds to <50% of the control in the Assay Explorer) are tested in the next experiment at 100 nM and 1% of DMSO. Substances which have an effect of >50% on the liberation of GAG under these conditions (this corresponds to <50% of the control in the Assay Explorer) are tested in a concentration/effect relationship. The compounds here are investigated in the following concentrations: 30 μM, 10 μM, 3 μM, 1 μM, […], 0.1 μM, 0.03 μM, 0.01 μM.
The positive control used is pepstatin A with a concentration of 0.01 μM. The assay window is defined by the control (pH 5.5), defined as 0% effect, and the control pH 5.5+0.01 μM pepstatin A, defined as 100% effect. After incubation for 3 days, the cell culture supernatants are collected and stored at −20° C. or measured directly. The amount of liberated GAG is measured photometrically.
The effect (1 value) of the respective substance in % based on the positive control (pH 5.5+0.01 μM pepstatin A) and the negative control (pH 5.5) is reported for concentrations of 1 μM and 100 nM. The value represents the average of 4 replicants. In the determination of a concentration/effect relationship, an IC50 value is reported to the database (Assay Explorer).
The cell culture supernatants (200 μl) are either measured directly or stored at −20° C. In order to ensure an accurate determination of the concentration (μg/ml of GAG in the supernatant) of GAG, the measurement values must be located in the linear region of the standard curve. In order to ensure this, various dilutions are routinely introduced (1/5, 1/10, 1/20, 1/40). The dilutions are prepared with medium and introduced automatically (Hamilton) into a 384-well plate (15 μl). 60 μl of DMMB solution are likewise added automatically (or using a multichannel pipette). A rapid colour reaction occurs, which is subsequently measured at 633 nm using a plate reader (for example Envision).

By pIC50 is commonly meant −log10 of the IC50, conventionally taken in molar units.

pIC50: −log10 of the molar value.

With `CCC(CC)NC(=O)[C@@H](NC(=O)C[C@H](N)[C@H](Cc1ccccc1)NC(=O)[C@@H](NC(=O)[C@H](CC(C)C)NC(=O)CC(C)C)C(C)C)[C@@H](C)CC` [Compound 39, N-[(1S,2S)-1-(1-Ethylpropylcarbamoyl)-2-methylbutyl]-(S)-3-(S)-amino-4-{(S)-3-methyl-2-[(S)-4-methyl-2-(3-methylbutyryl-amino)pentanoylamino]butyrylamino}-5-phenylpentanamide], the pIC50 was 9.63.
